In the OPERA property sets (Mansouri et al. 2018):

C=CCOC=C
boiling point: 66 °C

C=C(C)C#N
boiling point: 90.3 °C | log10 vapour pressure (mmHg): 1.85 | melting point: -35.8 °C | ready biodegradability: readily biodegradable

CC1CNCCN1 (stereo not given)
boiling point: 153 °C | melting point: 62 °C

BrC1CCC(Br)C(Br)CCC1Br (stereo not given)
ready biodegradability: not readily biodegradable

COc1cc(OC)nc(Sc2cccc(Cl)c2C(=O)O)n1
melting point: 150 °C

NS(=O)(=O)c1ccc(S(=O)(=O)CCO)cc1
melting point: 165 °C

S=C(Nc1cccc2ccccc12)Nc1cccc2ccccc12
melting point: 208 °C

ClC=CCc1ccccc1
boiling point: 211 °C

CCCCCCCCCCCCOS(=O)(=O)O
ready biodegradability: readily biodegradable

Cc1cc(C)c([N+](=O)[O-])cc1C
boiling point: 265 °C | melting point: 71 °C

O=C(O)/C=C/CCl
melting point: 83 °C

C=CI
boiling point: 56 °C

COC(=O)c1ccc(C)cc1O
boiling point: 243 °C | melting point: 27.5 °C

C=C1CCCCC1
boiling point: 102 °C | log10 vapour pressure (mmHg): 1.6 | melting point: -107 °C

CC(=O)OC(C)OC(C)=O
boiling point: 169 °C | melting point: 18.9 °C

O=C1OC(=O)c2cc(Cl)c(Cl)cc21
boiling point: 313 °C | melting point: 188 °C

CCCCCCCCCCCCCCCCCCCCCC(=O)OC
melting point: 54 °C

CC[C@@](C)(O)C(=O)O
melting point: 74 °C

CCOC(=O)C1(S(=O)(=O)c2ccc(C)cc2)CCC1
melting point: 53.5 °C

OC(c1ccccc1)(c1ccccc1)c1ccccc1
boiling point: 380 °C | melting point: 164 °C

Cc1ccccc1C#N
boiling point: 205 °C | log10 vapour pressure (mmHg): -0.348 | melting point: -13.5 °C

Nc1cc(S(=O)(=O)O)cc2cc(S(=O)(=O)[O][Na])cc(O)c12
log10 BCF (fish): 0.46

C[C@@H](N)[C@@H](O)c1ccccc1
melting point: 101 °C

CCCCCC(C)C
boiling point: 118 °C | log10 biodegradation half-life (days): 0.477 | log10 vapour pressure (mmHg): 1.32 | melting point: -109 °C

Nc1ccc(Cl)cc1[N+](=O)[O-]
melting point: 116 °C | ready biodegradability: not readily biodegradable | log10 BCF (fish): 1.04 | log10 biotransformation half-life (days) (fish): -0.96

FC(F)(F)c1ccc(C(F)(F)F)cc1
boiling point: 116 °C

COc1ccc2c(=O)c(C)c(-c3ccccc3)oc2c1CN(C)C
melting point: 110 °C

OC(c1ccccc1)(c1ccccc1)C(O)(c1ccccc1)c1ccccc1
melting point: 182 °C

N#Cc1cc(I)c(O)c(I)c1
melting point: 212 °C | ready biodegradability: not readily biodegradable

CCCCCCCCCCCCCCCCCCNC(=O)[C@H](O)[C@@H](O)[C@H](O)[C@H](O)CO
ready biodegradability: not readily biodegradable

CCCCCCCCCCCC(=O)OCC
boiling point: 271 °C | melting point: -10 °C

CC(=O)N1CCC(=O)CC1
boiling point: 218 °C

CN1CCN(C(=O)CC(c2ccc(Cl)cc2)(c2ccc(Cl)cc2)c2ccc(Cl)cc2)CC1
melting point: 214 °C

CCS(=O)(=O)c1cccnc1S(=O)(=O)NC(=O)Nc1nc(OC)cc(OC)n1
log10 Koc (L/kg): 1.71 | melting point: 177 °C

CON=C(C)c1cccc(Oc2nc(OC)cc(OC)n2)c1C(=O)OC
log10 vapour pressure (mmHg): -6.64 | melting point: 107 °C

CCCCCCCCC(O)CCCCCCCC
melting point: 61 °C

CC(C)Oc1ccccc1
boiling point: 177 °C | melting point: -33 °C

CCOC(=O)c1ccc([N+](=O)[O-])cc1
boiling point: 186 °C | log10 Koc (L/kg): 2.48 | melting point: 57 °C

C=CCc1ccccc1O
boiling point: 220 °C | melting point: -6 °C | ready biodegradability: readily biodegradable

CC(C)=CC(=O)NS(=O)(=O)c1ccc(N)cc1
melting point: 184 °C

O=Cc1ccccc1C=O
melting point: 56.5 °C

NCc1ccccc1Sc1ccccc1CO
melting point: 97 °C

Cn1c(=O)c2c(ncn2CCOC(=O)c2cccnc2)n(C)c1=O
melting point: 152 °C

CCOC(=O)CC(C)C
boiling point: 135 °C | log10 vapour pressure (mmHg): 0.919 | melting point: -99.3 °C

CC1(C)[C@H](C(=O)O[C@H](C#N)c2cccc(Oc3ccccc3)c2)[C@@H]1C(Br)C(Br)(Br)Br (stereo not given in full)
log10 Koc (L/kg): 5 | log10 vapour pressure (mmHg): -10.4 | melting point: 143 °C

Cc1ccc2c(-c3ccccc3)nc(=O)n(C(C)C)c2c1
melting point: 138 °C

Oc1cccc2[nH]ccc12
melting point: 100 °C

Nc1ccc(S(=O)(=O)Nc2nccs2)cc1
melting point: 189 °C

CC(C)(C)NC[C@H](O)COc1ccccc1C1CCCC1
melting point: 70 °C

O=C(O)C=Cc1ccc(Br)cc1
melting point: 263 °C

Cc1cc(C)c(C)c(C)n1
boiling point: 203 °C

Clc1ccc(-c2ccccc2)cc1
boiling point: 293 °C | log10 Henry constant (atm·m³/mol): -3.24 | log10 Koa: 6.8 | log10 vapour pressure (mmHg): -1.98 | melting point: 78.8 °C | ready biodegradability: readily biodegradable

CN(C)NC(=O)CCC(=O)O
log10 Koc (L/kg): 0.95 | melting point: 154 °C

CCOCCBr
boiling point: 128 °C

CC(C)(C)NC(=O)[C@H]1CC[C@H]2[C@@H]3CC[C@H]4NC(=O)C=C[C@]4(C)[C@H]3CC[C@]12C
melting point: 253 °C

O=[N+]([O-])c1ccc(Oc2ccc(N=C=S)cc2)cc1
melting point: 110 °C

CCCCCCCOC=O
boiling point: 178 °C

CC(C)CCCC(C)(C)O
boiling point: 173 °C

CCCCCCF
boiling point: 91.5 °C | log10 vapour pressure (mmHg): 1.76 | melting point: -103 °C

Oc1ccc(Cl)cc1Cc1ccccc1
log10 vapour pressure (mmHg): -5.85 | melting point: 48.5 °C | ready biodegradability: readily biodegradable

CCOC(=O)C(C)O (stereo not given)
boiling point: 154 °C | log10 vapour pressure (mmHg): 0.574

O=C(O)c1ccc2c(c1)C(=O)c1ccccc1-2
melting point: 341 °C

C[C@@H]1CC[C@@]2(OC1)O[C@H]1C[C@H]3[C@@H]4CC=C5C[C@@H](O)CC[C@]5(C)[C@H]4CC[C@]3(C)[C@H]1[C@@H]2C
melting point: 206 °C

CC(=O)c1ccc(Cl)cc1
boiling point: 232 °C | melting point: 20 °C

CCCN(CCC)S(=O)(=O)c1ccc(C(=O)O)cc1
melting point: 195 °C

CCCCCCCCCCCCCOP(Oc1ccccc1)Oc1ccccc1
ready biodegradability: not readily biodegradable

O=[N+]([O-])c1cccc(I)c1
boiling point: 280 °C | melting point: 38.5 °C

CC(C)(c1ccccc1)c1ccc(O)cc1
boiling point: 335 °C | log10 vapour pressure (mmHg): -4.23 | melting point: 75 °C | ready biodegradability: not readily biodegradable

O=C1OC(c2ccc(O)c3ccccc23)(c2ccc(O)c3ccccc23)c2ccccc21
melting point: 254 °C

CC(Oc1ccc(Oc2ncc(C(F)(F)F)cc2Cl)cc1)C(=O)O (stereo not given)
melting point: 108 °C

Cc1cc(Cl)[nH]n1
boiling point: 258 °C | melting point: 118 °C

CCc1cccc(C)n1
boiling point: 160 °C

CC(c1ccccc1)C(C)(C)O (stereo not given)
boiling point: 197 °C | melting point: 46 °C

C=CCN=C=S
boiling point: 152 °C | log10 vapour pressure (mmHg): 0.568 | melting point: -80 °C

O=C(O)c1c(Br)c(O)c(O)c(O)c1Br
melting point: 150 °C

CCCCCCCCCCCCCC#N
melting point: 19 °C

NC(=O)c1ccccc1F
melting point: 118 °C

O=C(C(Br)Br)C(Br)(Br)Br
melting point: 79.5 °C

CC[C@]1(O)CC[C@H]2[C@@H]3CCC4=CC(=O)CC[C@@H]4[C@H]3CC[C@@]21C
melting point: 140 °C

C=C(CC)CC
boiling point: 64.7 °C | log10 vapour pressure (mmHg): 2.24 | melting point: -132 °C

CON(C)C(=O)Nc1ccc(Br)c(Cl)c1
log10 Koc (L/kg): 2.7 | log10 vapour pressure (mmHg): -6.4 | melting point: 96 °C

COc1ccc(Cl)cc1C(=O)NCCc1ccc(S(=O)(=O)NC(=O)NC2CCCCC2)cc1
melting point: 169 °C

O=[N+]([O-])c1cccc(SSc2cccc([N+](=O)[O-])c2)c1
melting point: 84 °C

CC(C)SC(C)C
boiling point: 120 °C | log10 Henry constant (atm·m³/mol): -2.48 | log10 vapour pressure (mmHg): 1.28 | melting point: -78.1 °C

C1CC2CCC1C2
boiling point: 105 °C | melting point: 87.5 °C
